From patent US6211212A, “Pyrrolidine and thiazole derivatives with metallo-beta-lactamase inhibitory properties” (SmithKline Beecham p.l.c., priority 1997, dated 2001)

Target: B.fragilis CfiA metallo-β-lactamase (Bacteroides fragilis, UniProt P25910)
Assay: I50 screen (nitrocefin reporter substrate)
Format: biochemical
Conditions: 25 μM PIPES pH 7, 37° C., nitrocefin 91 μM, 5 minute preincubation, Zn2+ 100 μM
Procedure: The inhibitory activity of the compounds of the invention was measured in 25 μM PIPES pH 7 buffer at 10 concentrations (1000, 333, 111, 37, 12.3, 4.1, 1.4, 0.46, 0.15 and 0.05 μM) at 37° C. using nitrocefin (91 μM final concentration) as the reporter substrate. The assays were performed with a 5 minute preincubation of enzyme and inhibitor and were conducted in the presence of added zinc sulphate (Zn^2+ 100 μM, final concentration). The methodology is described in detail in the following references: Payne et al (1991), J. Antimicrob. Chemother., 28:255; Payne et al (1994), Antimicrob. Agents and Chemother., 38:767.

Sequence of B.fragilis CfiA metallo-β-lactamase (P25910 19-249): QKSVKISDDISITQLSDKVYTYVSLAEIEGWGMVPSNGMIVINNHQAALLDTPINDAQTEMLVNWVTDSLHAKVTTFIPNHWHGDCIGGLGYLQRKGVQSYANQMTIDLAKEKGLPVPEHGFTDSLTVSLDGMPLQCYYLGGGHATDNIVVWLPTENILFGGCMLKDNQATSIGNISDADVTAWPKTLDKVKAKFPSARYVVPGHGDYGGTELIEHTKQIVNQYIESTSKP

IC50: < 1000 nM
SMILES: O=C(N[C@@H](C(=O)O)c1ccccc1)[C@H]1CCCC[C@H]1S (mixture of isomers) [Example E3, N-[2-(R,S)-Mercapto-1-(R,S)-cyclohexancarbonyl]-D-phenylglycine]
